In ChEMBL document CHEMBL1128779, “Synthesis of a fluorescent labeled thromboxane A2 receptor antagonist” (Bioorg Med Chem Lett, 1995):

Target: T1, Thromboxane A2 receptor (Homo sapiens, UniProt P21731)
T1 sequence (P21731 whole entry): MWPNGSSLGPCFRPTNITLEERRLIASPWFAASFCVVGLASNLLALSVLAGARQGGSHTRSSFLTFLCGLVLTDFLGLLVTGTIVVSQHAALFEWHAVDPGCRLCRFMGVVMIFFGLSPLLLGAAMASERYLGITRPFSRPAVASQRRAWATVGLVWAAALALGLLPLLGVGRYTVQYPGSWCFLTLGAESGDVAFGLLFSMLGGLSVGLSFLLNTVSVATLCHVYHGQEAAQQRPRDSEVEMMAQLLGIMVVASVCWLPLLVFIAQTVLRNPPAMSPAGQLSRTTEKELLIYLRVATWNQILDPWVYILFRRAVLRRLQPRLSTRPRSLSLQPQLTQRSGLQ
Experiment: Binding affinity of Thromboxane A2 (TXA2) receptor using [3H]-SQ 29,548 radioligand in washed human platelets

Row | Kd | SMILES
1 | 0.424 µM | CC1(C)C2CC[C@@H](Cc3cccc4ccc(=O)oc34)C1C2 (some centres not stated)
2 | 0.138 µM | CC1(C)C2CC[C@H](Cc3cccc4ccc(=O)oc34)C1C2 (some centres not stated)
